Measured values as given in patent publication US20220132852A1, “PESTICIDALLY ACTIVE HETEROCYCLIC DERIVATIVES WITH SULFUR CONTAINING SUBSTITUENTS” (SYNGENTA CROP PROTECTION AG, priority 2019, published 2022).

Tests used:
Format in all cases: in vivo
[1] = tested on: Diabrotica balteata (Corn Root Worm); test: Example B1: Activity against Diabrotica balteata (corn root worm), sprayed maize sprouts; conditions: 96 h, application rate 200 ppm, L2 larvae on sprayed maize sprouts, 4 days after infestation, read-out: effect in at least one of the two categories (mortality or growth inhibition)
Method: Example B1: Activity Against Diabrotica balteata (Corn Root Worm)
Maize sprouts placed onto an agar layer in 24-well microtiter plates were treated with aqueous test solutions prepared from 10′000 ppm DMSO stock solutions by spraying. After drying, the plates were infested with L2 larvae (6 to 10 per well). The samples were assessed for mortality and growth inhibition in comparison to untreated samples 4 days after infestation.

[2] = tested on: Plutella xylostella (Diamond Back Moth); test: Example B3: Activity against Plutella xylostella (diamond back moth), artificial diet; conditions: 192 h, application rate 200 ppm, eggs on artificial diet, 8 days after infestation, read-out: effect in at least one of the two categories (mortality or growth inhibition)
Method: Example B3: Activity Against Plutella xylostella (Diamond Back Moth)
24-well microtiter plates with artificial diet were treated with aqueous test solutions prepared from 10′000 ppm DMSO stock solutions by pipetting. After drying, Plutella eggs were pipetted through a plastic stencil onto a gel blotting paper and the plate was closed with it. The samples were assessed for mortality and growth inhibition in comparison to untreated samples 8 days after infestation. The following compounds gave an effect of at least 80% in at least one of the two categories (mortality or growth inhibition) at an application rate of 200 ppm: P2, P4, P5, P6, P8, P9, P10, P11, P12, P14, P15, P16, P17, P18, P19, P20, P21, P22, P23, P24, P25, P26, P27, P28, P29, P30, P31, P32, P33, P34, P35, P36, P38, P39, P40, P42, P45, P46, P47, P49, P50, P51, P52.

[3] = tested on: Spodoptera littoralis (Egyptian Cotton Leaf Worm); test: Example B6: Activity against Spodoptera littoralis (Egyptian cotton leaf worm); conditions: foliar, 72 h, application rate 200 ppm, L1 larvae on sprayed cotton leaf discs, 3 days after infestation, read-out: control (mortality, anti-feeding effect or growth inhibition)
Method: Example B6: Activity Against Spodoptera littoralis (Egyptian Cotton Leaf Worm)
Cotton leaf discs were placed onto agar in 24-well microtiter plates and sprayed with aqueous test solutions prepared from 10′000 ppm DMSO stock solutions. After drying the leaf discs were infested with five L1 larvae. The samples were assessed for mortality, anti-feeding effect, and growth inhibition in comparison to untreated samples 3 days after infestation. Control of Spodoptera littoralis by a test sample is given when at least one of the categories mortality, anti-feedant effect, and growth inhibition is higher than the untreated sample.

[4] = tested on: Euschistus heros (Neotropical Brown Stink Bug); test: Example B2: Activity against Euschistus heros (neotropical brown stink bug), sprayed soybean leaves; conditions: 120 h, application rate 200 ppm, N2 nymphs on sprayed soybean leaves, 5 days after infestation, read-out: effect in at least one of the two categories (mortality or growth inhibition)
Method: Example B2: Activity Against Euschistus heros (Neotropical Brown Stink Bug)
Soybean leaves on agar in 24-well microtiter plates were sprayed with aqueous test solutions prepared from 10′000 ppm DMSO stock solutions. After drying the leaves were infested with N2 nymphs. The samples were assessed for mortality and growth inhibition in comparison to untreated samples 5 days after infestation.

[5] = tested on: Myzus persicae (Green Peach Aphid); test: whole plant or invertebrate; conditions: foliar, 144 h, application rate 200 ppm, sprayed sunflower leaf discs, mixed ages, 6 days after infestation
Method: Example B4: Activity Against Myzus persicae (Green Peach Aphid) Feeding/Contact Activity
Sunflower leaf discs were placed onto agar in a 24-well microtiter plate and sprayed with aqueous test solutions prepared from 10′000 ppm DMSO stock solutions. After drying, the leaf discs were infested with an aphid population of mixed ages. The samples were assessed for mortality 6 days after infestation.

CCS(=O)(=O)c1cc(C2(C#N)CC2)cnc1-c1cc2ccn(CC(F)(F)C(F)(F)F)c2cn1 [Compound P23, 1-[5-ethylsulfonyl-6-[1-(2,2,3,3,3-pentafluoropropyl)pyrrolo[2,3-c]pyridin-5-yl]-3-pyridyl] cyclopropane-carbonitrile]
≥ 80%: percent effect (mortality or growth inhibition) at 200 ppm [1] | percent effect (mortality or growth inhibition) at 200 ppm [2] | percent control (mortality, anti-feedant effect or growth inhibition) at 200 ppm [3] | percent effect (mortality or growth inhibition) at 200 ppm [4] | mortality at 200 ppm [5]

CCS(=O)(=O)c1cccnc1-c1cc2ccn(CC(F)(F)C(F)(F)F)c2cn1 [Compound P8, 5-(3-ethylsulfonyl-2-pyridyl)-1-(2,2,3,3,3-pentafluoropropyl) pyrrolo[2,3-c]pyridine]
≥ 80%: percent effect (mortality or growth inhibition) at 200 ppm [1] | percent effect (mortality or growth inhibition) at 200 ppm [2] | percent control (mortality, anti-feedant effect or growth inhibition) at 200 ppm [3] | percent effect (mortality or growth inhibition) at 200 ppm [4] | mortality at 200 ppm [5]

CCS(=O)(=O)c1ccc(-n2cncn2)nc1-c1cc2ncn(CC(F)(F)C(F)(F)F)c2cn1 [Compound P32, 6-[3-ethylsulfonyl-6-(1,2,4-triazol-1-yl)-2-pyridyl]-3-(2,2,3,3,3-pentafluoropropyl)imidazo[4,5-c]pyridine]
≥ 80%: percent effect (mortality or growth inhibition) at 200 ppm [1] | percent effect (mortality or growth inhibition) at 200 ppm [2] | percent effect (mortality or growth inhibition) at 200 ppm [4] | mortality at 200 ppm [5]

CCS(=O)(=O)c1ccc(NC)nc1-c1cc2cnn(CC(F)(F)C(F)(F)F)c2cn1 [Compound P14, 5-ethylsulfonyl-N-methyl-6-[1-(2,2,3,3,3-pentafluoropropyl)pyrazolo[3,4-c]pyridin-5-yl]pyridin-2-amine]
≥ 80%: percent effect (mortality or growth inhibition) at 200 ppm [1] | percent effect (mortality or growth inhibition) at 200 ppm [2] | percent control (mortality, anti-feedant effect or growth inhibition) at 200 ppm [3] | percent effect (mortality or growth inhibition) at 200 ppm [4] | mortality at 200 ppm [5]

CCS(=O)(=O)c1ccc(NC)nc1-c1cc2ccn(CC(F)(F)C(F)(F)F)c2cn1 [Compound P24, 5-ethylsulfonyl-N-methyl-6-[1-(2,2,3,3,3-pentafluoropropyl)pyrrolo[2,3-c]pyridin-5-yl]pyridin-2-amine]
≥ 80%: percent effect (mortality or growth inhibition) at 200 ppm [1] | percent effect (mortality or growth inhibition) at 200 ppm [2] | percent control (mortality, anti-feedant effect or growth inhibition) at 200 ppm [3] | percent effect (mortality or growth inhibition) at 200 ppm [4] | mortality at 200 ppm [5]

CCS(=O)(=O)c1ccc(-n2cncn2)nc1-c1cc2cnn(CC(F)(F)C(F)(F)F)c2cn1 [Compound P22, 5-[3-ethylsulfonyl-6-(1,2,4-triazol-1-yl)-2-pyridyl]-1-(2,2,3,3,3-pentafluoropropyl) pyrazolo[3,4-c] pyridine]
≥ 80%: percent effect (mortality or growth inhibition) at 200 ppm [1] | percent effect (mortality or growth inhibition) at 200 ppm [2] | percent control (mortality, anti-feedant effect or growth inhibition) at 200 ppm [3] | percent effect (mortality or growth inhibition) at 200 ppm [4] | mortality at 200 ppm [5]

CC[S+]([O-])c1cccnc1-c1cc2ccn(CC(F)(F)C(F)(F)F)c2cn1 (stereo not shown) [Compound P7, 5-(3-ethylsulfinyl-2-pyridyl)-1-(2,2,3,3,3-pentafluoropropyl) pyrrolo[2,3-c]pyridine]
≥ 80%: percent effect (mortality or growth inhibition) at 200 ppm [1] | mortality at 200 ppm [5]

CCS(=O)(=O)c1ccc(N2CCOC2=O)nc1-c1cc2cnn(CC(F)(F)C(F)(F)F)c2cn1 [Compound P27, 3-[5-ethylsulfonyl-6-[1-(2,2,3,3,3-pentafluoropropyl)pyrazolo[3,4-c]pyridin-5-yl]-2-pyridyl]oxazolidin-2-one]
≥ 80%: percent effect (mortality or growth inhibition) at 200 ppm [2] | percent control (mortality, anti-feedant effect or growth inhibition) at 200 ppm [3] | mortality at 200 ppm [5]
